Assay results: PubChem BioAssay (NCI)
Values joined by “and” are separate entries in the source; they are usually repeats but may differ in a detail not shown here. Identical values can stand only once.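 Cultured in 96-well plates, cells were exposed to test compound for 48 hours across five concentrations. GI50: concentration for 50% inhibition of growth. Definition used: TGI = concentration required for complete inhibition of growth.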

Key:
Test in all cases: DTP human tumour cell line panel, 48 h
[1] = system: ACHN renal
[2] = system: OVCAR-5 ovarian
[3] = system: LOX IMVI melanoma
[4] = system: RPMI-8226 leukemia
[5] = system: MCF7 breast
[6] = system: IGROV1 ovarian
[7] = system: PC-3 prostate
[8] = system: U251 CNS
[9] = system: HT29 colon
[10] = system: CCRF-CEM leukemia

SMILES | GI50 [1] | TGI [1] | GI50 [2] | TGI [2] | GI50 [3] | TGI [3] [µM] | GI50 [4] [µM] | TGI [4] [µM] | GI50 [5] | TGI [5] [µM] | GI50 [6] | TGI [6] | GI50 [7] [µM] | TGI [7] [µM] | GI50 [8] | TGI [8] | GI50 [9] [µM] | TGI [9] [µM] | GI50 [10] | TGI [10] [µM]
NCC(=O)CCC(=O)O | > 100 µM | > 100 µM | > 100 µM | > 100 µM | > 100 µM | > 100 | > 100 | > 100 | > 100 µM | > 100 | > 100 µM | > 100 µM | > 100 | > 100 | > 100 µM | > 100 µM | > 100 | > 100 | > 87.2 µM | > 100
c1ccc2c(c1)ccc1c3ccccc3ccc21 | > 50 µM | > 50 µM | > 50 µM | > 50 µM | > 50 µM | > 50 | > 50 | > 50 | > 50 µM | > 50 | > 50 µM | > 50 µM | > 50 | > 50 | > 50 µM | > 50 µM | > 50 | > 50 | > 50 µM | > 50
C=C(C(=O)OC)[C@@H]1C[C@@H](O)[C@]2(C)CC/C=C(\C)CCC[C@H](C)[C@H](O)C1O2 | 57.5 µM | > 100 µM | > 100 µM | > 100 µM | 32.8 µM | > 100 | 27.6 | 59 | 31.7 µM | > 100 | 22.7 µM | 73.5 µM | 30.9 | > 100 | 51.4 µM | > 100 µM | 53 | > 100 | 24.2 µM | 46
COC(=O)[C@]12CC[C@@H](C)[C@H](C)[C@@H]1C1=CC[C@@H]3[C@@]4(C)C=C(O)C(=O)C(C)=C4CC[C@@]3(C)[C@]1(C)CC2 | 5.4 µM | 19.3 µM | 17.8 µM | 38.6 µM | 13 µM | 27.4 | 8.62 | 32.8 | 10.8 µM | 26.9 | 13.4 µM | 36.5 µM | 4.16 | 18.4 | 16.9 µM | 33.6 µM | 9.35 | 23 | 5.26 µM | 23.4
CN1CCN(c2cc(Nc3cc(C4CC4)[nH]n3)nc(Nc3ccc(CC(=O)NCc4cccc(F)c4)cc3)n2)CC1 | 2.01 µM | 10.6 µM | 0.432 µM | 15.8 µM | 0.219 µM | 1.48 | 2 | 6.52 | 0.108 µM | 2.05 | 0.237 µM | 2.97 µM | 0.616 | 22.8 | 0.978 µM | 5.24 µM | 0.379 | 11.6 | 0.0495 µM | 7.49
CN(C)CCCC(=O)Nc1ccc(Cn2nnc3c2C(=O)c2nnn(Cc4ccc(NC(=O)CCCN(C)C)cc4)c2C3=O)cc1 | 38.9 µM | > 100 µM | 19 µM | 51.4 µM | 2.22 µM | 5.62 | 3.17 | 15.9 | 1.45 µM | 3.52 | 2.32 µM | 5.74 µM | 4.75 | 43.4 | 2.69 µM | 6.62 µM | 3.22 | 7.87 | 2.04 µM | 6.35
COc1ccc(Cn2cc(Cn3c(=O)c(-c4nc5ccccc5[nH]4)cc4ccccc43)nn2)c(OC)c1OC | 0.476 µM and 0.68 µM | 1.67 µM and 4.17 µM | 0.201 µM and 0.329 µM | 1.23 µM and 1.53 µM | 0.254 µM and 0.112 µM | – | 0.129 | 1.15 | 0.0789 µM and 0.0495 µM | – | 0.186 µM and 0.445 µM | 1.84 µM and 3.66 µM | 0.313 | > 100 | 0.308 µM and 0.183 µM | 8.29 µM and 17.6 µM | 0.0712 | 4.05 | 0.174 µM and 0.443 µM | –
C[C@@]12CCC[C@@](C)(C(=O)O)C1CC[C@@]13CC(=O)[C@@](CO)(CCC12)C3 (some centres not stated) | > 100 µM | > 100 µM | > 100 µM | > 100 µM | > 100 µM | > 100 | > 100 | > 100 | > 100 µM | > 100 | > 100 µM | > 100 µM | > 100 | > 100 | > 100 µM | > 100 µM | > 100 | > 100 | > 100 µM | > 100
CCN1CCCCC(=N\O)/C(=N/O)CCCC1 | – | > 100 µM | – | > 100 µM | – | > 100 | – | > 100 | – | > 100 | – | > 100 µM | – | > 100 | – | > 100 µM | – | > 100 | – | > 100
